Measurements as given in ChEMBL document CHEMBL1139163, “Discovery and initial SAR of 3-(1H-benzo[d]imidazol-2-yl)pyridin-2(1H)-ones as inhibitors of insulin-like growth factor 1-receptor (IGF-1R)” (Bioorg Med Chem Lett, 2007).

Experiments:
[1] = test system: HT-29; test: Cytotoxicity against HT29 cells by MTT assay; assay type: functional, Homo sapiens
[2] = molecular target: Insulin-like growth factor 1 receptor (Homo sapiens, UniProt P08069); test: Inhibition of human recombinant IGF1 receptor
Sequence of Insulin-like growth factor 1 receptor (P08069 31-736 limits assumed): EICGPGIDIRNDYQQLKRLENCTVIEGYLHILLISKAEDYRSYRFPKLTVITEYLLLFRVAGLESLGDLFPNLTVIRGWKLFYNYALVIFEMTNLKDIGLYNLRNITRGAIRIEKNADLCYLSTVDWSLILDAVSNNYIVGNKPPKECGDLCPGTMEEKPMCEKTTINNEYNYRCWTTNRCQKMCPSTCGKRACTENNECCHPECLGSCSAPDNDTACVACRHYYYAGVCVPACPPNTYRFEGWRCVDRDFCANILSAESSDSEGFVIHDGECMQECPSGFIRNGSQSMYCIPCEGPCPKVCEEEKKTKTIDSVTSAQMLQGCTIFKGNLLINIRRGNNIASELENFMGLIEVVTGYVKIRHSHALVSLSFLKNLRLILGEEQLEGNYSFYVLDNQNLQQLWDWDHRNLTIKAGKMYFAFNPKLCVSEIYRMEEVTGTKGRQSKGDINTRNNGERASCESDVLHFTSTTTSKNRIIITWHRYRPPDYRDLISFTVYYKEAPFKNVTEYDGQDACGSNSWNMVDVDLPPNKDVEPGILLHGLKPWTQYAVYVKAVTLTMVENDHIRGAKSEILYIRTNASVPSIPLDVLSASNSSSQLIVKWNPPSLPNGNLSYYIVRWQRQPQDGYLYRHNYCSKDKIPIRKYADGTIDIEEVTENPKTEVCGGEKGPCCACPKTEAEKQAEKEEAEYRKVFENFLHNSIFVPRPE
Sequence of Insulin-like growth factor 1 receptor (P08069 741-1367 limits assumed): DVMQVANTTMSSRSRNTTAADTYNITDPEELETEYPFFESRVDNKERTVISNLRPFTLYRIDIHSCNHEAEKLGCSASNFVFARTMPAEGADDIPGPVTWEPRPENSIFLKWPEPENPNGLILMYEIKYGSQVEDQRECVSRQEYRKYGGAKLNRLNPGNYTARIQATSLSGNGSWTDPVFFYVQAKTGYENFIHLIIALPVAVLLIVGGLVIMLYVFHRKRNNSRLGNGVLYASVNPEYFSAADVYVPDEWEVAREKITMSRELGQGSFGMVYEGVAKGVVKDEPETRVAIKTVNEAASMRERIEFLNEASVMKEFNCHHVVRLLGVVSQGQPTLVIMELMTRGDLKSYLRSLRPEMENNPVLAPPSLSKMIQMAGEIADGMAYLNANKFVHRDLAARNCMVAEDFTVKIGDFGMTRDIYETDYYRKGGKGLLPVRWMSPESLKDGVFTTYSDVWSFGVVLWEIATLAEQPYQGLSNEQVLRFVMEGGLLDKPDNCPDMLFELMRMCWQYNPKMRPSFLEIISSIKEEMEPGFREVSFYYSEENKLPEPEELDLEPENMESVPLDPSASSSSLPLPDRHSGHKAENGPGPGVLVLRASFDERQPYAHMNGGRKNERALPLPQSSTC

Cc1cc(-n2ccnc2)cc2[nH]c(-c3c(N[C@H](CO)Cc4ccccc4)cc[nH]c3=O)nc12
Activity [1]: 0.78 µM
IC50 [2]: 530 nM

O=c1[nH]cccc1-c1nc2cc(-n3ccnc3)cc(CNCc3cccnc3)c2[nH]1
IC50 [2]: > 25000 nM

CN(Cc1cc(-n2ccnc2)cc2[nH]c(-c3ccc[nH]c3=O)nc12)c1ccccc1
IC50 [2]: > 25000 nM

Cc1cc(-n2ccnc2)cc2[nH]c(-c3c(N[C@H](CO)Cc4ccc(Cl)cc4)cc[nH]c3=O)nc12
IC50 [2]: 5400 nM

Cc1cc(-n2ccnc2)cc2[nH]c(-c3c(N[C@H](CO)Cc4cccc(Cl)c4)cc[nH]c3=O)nc12
Activity [1]: 1.1 µM
IC50 [2]: 730 nM

COc1ccccc1C[C@@H](CO)Nc1cc[nH]c(=O)c1-c1nc2c(C)cc(-n3ccnc3)cc2[nH]1
Activity [1]: 1.2 µM
IC50 [2]: 570 nM

Cc1cc(-n2ccnc2)cc2[nH]c(-c3c(N[C@H](CO)Cc4ccccc4Br)cc[nH]c3=O)nc12
Activity [1]: 0.83 µM
IC50 [2]: 290 nM

Cc1cc(-n2ccnc2)cc2nc(-c3c(N[C@H](CO)Cc4ccccn4)cc[nH]c3=O)[nH]c12
IC50 [2]: 4800 nM

COc1ccc(C[C@@H](CO)Nc2cc[nH]c(=O)c2-c2nc3c(C)cc(-n4ccnc4)cc3[nH]2)cc1
IC50 [2]: 3100 nM

Cc1cc(-n2ccnc2)cc2[nH]c(-c3c(N[C@H](CO)Cc4ccccc4OC(F)(F)F)cc[nH]c3=O)nc12
IC50 [2]: 1300 nM

Cc1cc(-n2ccnc2)cc2[nH]c(-c3c(SCc4ccccn4)cc[nH]c3=O)nc12
IC50 [2]: > 25000 nM

Cc1cc(-n2ccnc2)cc2[nH]c(-c3c(NCc4ccncc4)cc[nH]c3=O)nc12
IC50 [2]: > 25000 nM

Cc1cc(-n2ccnc2)cc2[nH]c(-c3c(NCc4cccs4)cc[nH]c3=O)nc12
IC50 [2]: 5300 nM

Cc1cc(-n2ccnc2)cc2[nH]c(-c3c(N[C@H](CO)Cc4ccc(OC(C)(C)C)cc4)cc[nH]c3=O)nc12
IC50 [2]: 1700 nM

Cc1cc(-n2ccnc2)cc2nc(-c3c(NCCn4nccn4)cc[nH]c3=O)[nH]c12
IC50 [2]: 2500 nM

NCc1cc(-n2ccnc2)cc2nc(-c3ccc[nH]c3=O)[nH]c12
IC50 [2]: > 25000 nM

CNCc1cc(-n2ccnc2)cc2nc(-c3ccc[nH]c3=O)[nH]c12
IC50 [2]: > 25000 nM

CCN(Cc1cc(-n2ccnc2)cc2[nH]c(-c3ccc[nH]c3=O)nc12)c1ncc[nH]1
IC50 [2]: 13000 nM

O=c1[nH]cccc1-c1nc2c(CNCc3ccccc3)cc(-n3ccnc3)cc2[nH]1
IC50 [2]: > 25000 nM

Cc1cc(-n2ccnc2)cc2[nH]c(-c3c(N[C@H](CO)Cc4cccc(Br)c4)cc[nH]c3=O)nc12
Activity [1]: 1.3 µM
IC50 [2]: 590 nM

Cc1cc(-n2ccnc2)cc2[nH]c(-c3c(N[C@H](CO)Cc4cccc(F)c4)cc[nH]c3=O)nc12
Activity [1]: 2.1 µM
IC50 [2]: 590 nM

Cc1cc(-n2ccnc2)cc2[nH]c(-c3c(N[C@H](CO)Cc4ccccc4Cl)cc[nH]c3=O)nc12
IC50 [2]: 860 nM

Cc1ccccc1C[C@@H](CO)Nc1cc[nH]c(=O)c1-c1nc2c(C)cc(-n3ccnc3)cc2[nH]1
IC50 [2]: 530 nM

Cc1cc(-n2ccnc2)cc2nc(-c3c(NCc4cccnc4)cc[nH]c3=O)[nH]c12
IC50 [2]: 14000 nM

Cc1cc(-n2ccnc2)cc2nc(-c3c(NCc4ccco4)cc[nH]c3=O)[nH]c12
IC50 [2]: 3000 nM

Cc1cc(-n2ccnc2)cc2[nH]c(-c3c(N[C@H](CO)Cc4cccc([N+](=O)[O-])c4)cc[nH]c3=O)nc12
IC50 [2]: 3300 nM

O=c1[nH]cccc1-c1nc2c(CN3CCNCC3)cc(-n3ccnc3)cc2[nH]1
IC50 [2]: > 25000 nM

Cc1cc(-n2ccnc2)cc2[nH]c(-c3c(N[C@H](CO)Cc4ccc(F)cc4)cc[nH]c3=O)nc12
IC50 [2]: 1400 nM

Cc1cc(-n2ccnc2)cc2nc(-c3c(NCc4ccccn4)cc[nH]c3=O)[nH]c12
Activity [1]: 7.6 µM

Cc1cc(-n2ccnc2)cc2[nH]c(-c3c(N[C@H](CO)Cc4ccccc4C#N)cc[nH]c3=O)nc12
IC50 [2]: 2200 nM

Cc1cc(-n2ccnc2)cc2[nH]c(-c3c(OCc4ccccn4)cc[nH]c3=O)nc12
IC50 [2]: > 25000 nM

COc1cccc(C[C@@H](CO)Nc2cc[nH]c(=O)c2-c2nc3c(C)cc(-n4ccnc4)cc3[nH]2)c1
Activity [1]: 1.6 µM
IC50 [2]: 660 nM

Cc1cc(-n2ccnc2)cc2[nH]c(-c3c(NCCc4cccs4)cc[nH]c3=O)nc12
IC50 [2]: 2100 nM

Cc1cc(-n2ccnc2)cc2[nH]c(-c3c(N[C@H](CO)Cc4cccc(C(F)(F)F)c4)cc[nH]c3=O)nc12
IC50 [2]: 3500 nM
